According to article PMC10976173, “Synthesis of 5-Benzylamino and 5-Alkylamino-Substituted Pyrimido[4,5-c]quinoline Derivatives as CSNK2A Inhibitors with Antiviral Activity” (Pharmaceuticals, 2024):
Values after ≈ are worked out from the molar mass of the structure shown.

Test system: not given
Test: not given
Conditions: not given
With O=C(O)c1ccc2c(c1)nc(NCc1ccccc1Cl)c1ncncc12 [Compound 4a, 5-((2-chlorobenzyl)amino)pyrimido[4,5-c]quinoline-8-carboxylic acid] the melting point was 193 to 198 °C.
Compound CN1CCC(CNc2nc3cc(C(=O)O)ccc3c3cncnc23)CC1 [Compound 4ab, 5-(((1-methylpiperidin-4-yl)methyl)amino)pyrimido[4,5-c]quinoline-8-carboxylic acid] has a melting point of 205 to 208 °C.
CN(Cc1ccccc1)c1nc2cc(C(=O)O)ccc2c2cncnc12 [Compound 4ac, 5-(benzyl(methyl)amino)pyrimido[4,5-c]quinoline-8-carboxylic acid] gave a melting point of 200 to 204 °C.
CN(CC1CCCCC1)c1nc2cc(C(=O)O)ccc2c2cncnc12 [Compound 4ad, 5-((cyclohexylmethyl)(methyl)amino)pyrimido[4,5-c]quinoline-8-carboxylic acid] gave a melting point of 229 to 231 °C.
In the case of CC(Nc1nc2cc(C(=O)O)ccc2c2cncnc12)c1ccccc1 (stereo not drawn) [Compound 4ae, 5-((1-phenylethyl)amino)pyrimido[4,5-c]quinoline-8-carboxylic acid], the melting point is reported as 228 to 232 °C.
O=C(O)c1ccc2c(c1)nc(N[C@H]1CCc3ccccc31)c1ncncc12 [Compound 4ag, (S)-5-((2,3-dihydro-1H-inden-1-yl)amino)pyrimido[4,5-c]quinoline-8-carboxylic acid] showed a melting point of 252 to 255 °C.
O=C(O)c1ccc2c(c1)nc(N[C@@H]1CCc3ccccc31)c1ncncc12 [Compound 4ah, (R)-5-((2,3-dihydro-1H-inden-1-yl)amino)pyrimido[4,5-c]quinoline-8-carboxylic acid] showed a melting point of 260 to 262 °C.
Work on O=C(O)c1ccc2c(c1)nc(N1CCc3ccccc3C1)c1ncncc12 [Compound 4ai, 5-(3,4-dihydroisoquinolin-2(1H)-yl)pyrimido[4,5-c]quinoline-8-carboxylic acid] yielded a melting point of 204 to 208 °C.
Work on O=C(O)c1ccc2c(c1)nc(NCc1cccc(Cl)c1)c1ncncc12 [Compound 4b, 5-((3-chlorobenzyl)amino)pyrimido[4,5-c]quinoline-8-carboxylic acid] yielded a melting point of 240 to 243 °C.
COc1ccccc1CNc1nc2cc(C(=O)O)ccc2c2cncnc12 [Compound 4d, 5-((2-methoxybenzyl)amino)pyrimido[4,5-c]quinoline-8-carboxylic acid] showed a melting point of 230 to 233 °C.
In the case of COc1cccc(CNc2nc3cc(C(=O)O)ccc3c3cncnc23)c1 [Compound 4e, 5-((3-methoxybenzyl)amino)pyrimido[4,5-c]quinoline-8-carboxylic acid], the melting point is reported as 210 to 214 °C.
For COc1ccc(CNc2nc3cc(C(=O)O)ccc3c3cncnc23)cc1 [Compound 4f, 5-((4-methoxybenzyl)amino)pyrimido[4,5-c]quinoline-8-carboxylic acid], the melting point was 246 to 247 °C.
Compound Cc1ccc(CNc2nc3cc(C(=O)O)ccc3c3cncnc23)cc1 [Compound 4h, 5-((4-methylbenzyl)amino)pyrimido[4,5-c]quinoline-8-carboxylic acid] has a melting point of 201 to 204 °C.

Target: T1, CSNK2A (CSNK2A2-NLuc) (Homo sapiens, UniProt P19784)
T1 construct: expressed in transfected cells; host or cells: HEK293
T1 sequence (P19784 whole entry): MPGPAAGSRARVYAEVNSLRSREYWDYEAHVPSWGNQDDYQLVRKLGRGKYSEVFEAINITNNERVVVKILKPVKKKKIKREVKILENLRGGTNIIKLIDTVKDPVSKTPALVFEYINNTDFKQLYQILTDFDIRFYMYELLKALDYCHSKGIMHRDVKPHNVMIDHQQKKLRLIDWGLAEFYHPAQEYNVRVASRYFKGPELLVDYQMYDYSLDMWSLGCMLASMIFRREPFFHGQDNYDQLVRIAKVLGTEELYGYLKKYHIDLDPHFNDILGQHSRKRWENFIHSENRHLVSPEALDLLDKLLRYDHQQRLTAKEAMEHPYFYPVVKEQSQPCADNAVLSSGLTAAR
Test: In-cell CSNK2A target engagement by NanoBRET assay
Format: cell-based
Conditions: In-cell target engagement by NanoBRET assay, HEK293 cells
Description: A transfection complex of DNA at 10 µg/mL was created, consisting of 9 µg/mL of carrier DNA (Promega, Madison, WI, USA) and 1 µg/mL of CSNK2A2-NLuc fusion DNA in Opti-MEM without serum (Gibco). FuGENE HD (Promega) was added at 30 µL/mL to form a lipid/DNA complex. The solution was then mixed and incubated at room temperature for 20 min. […] The following day, the media was removed via aspiration and replaced with 85 μL of Opti-MEM without phenol red. A total of 5 μL per well of 20×-NanoBRET Tracer K10 (Promega) at 5 μM in Tracer Dilution Buffer (Promega N291B) was added to all wells, except the “no tracer” control wells. Test compounds (10 mM in DMSO) were diluted 100× in Opti-MEM media to prepare stock solutions and evaluated at eleven concentrations. A total of 10 μL per well of the 10-fold test compound stock solutions (final assay concentration of 0.1% DMSO) was added. […] 96-well plates containing cells with NanoBRET Tracer K10 and test compounds (100 µL total volume per well) were equilibrated (37 °C/5% CO2) for 2 h. The plates were cooled to room temperature for 15 min. […] A total of 50 μL of the 3× substrate/extracellular NL inhibitor were added to each well. The plates were read within 30 min on a GloMax Discover luminometer (Promega) equipped with 450 nm BP filter (donor) and 600 nm LP filter (acceptor) using 0.3 s integration time. Raw milliBRET (mBRET) values were obtained by dividing the acceptor emission values (600 nm) by the donor emission values (450 nm) and multiplying by 1000. […] The data were first normalized and then fit using Sigmoidal, 4PL binding curve in GraphPad Prism version 9.5.1 to determine IC50 values (Figure S1).
For O=C(O)c1ccc2c(c1)nc(NCc1ccccc1Cl)c1ncncc12 [Compound 4a, 5-((2-chlorobenzyl)amino)pyrimido[4,5-c]quinoline-8-carboxylic acid], the IC50 was 0.29 µM.
CN1CCC(CNc2nc3cc(C(=O)O)ccc3c3cncnc23)CC1 [Compound 4ab, 5-(((1-methylpiperidin-4-yl)methyl)amino)pyrimido[4,5-c]quinoline-8-carboxylic acid] showed an IC50 of 48.7 µM.
Compound CN(Cc1ccccc1)c1nc2cc(C(=O)O)ccc2c2cncnc12 [Compound 4ac, 5-(benzyl(methyl)amino)pyrimido[4,5-c]quinoline-8-carboxylic acid] has an IC50 of 0.25 µM.
CN(CC1CCCCC1)c1nc2cc(C(=O)O)ccc2c2cncnc12 [Compound 4ad, 5-((cyclohexylmethyl)(methyl)amino)pyrimido[4,5-c]quinoline-8-carboxylic acid] gave an IC50 of 2.4 µM.
Work on CC(Nc1nc2cc(C(=O)O)ccc2c2cncnc12)c1ccccc1 (stereo not drawn) [Compound 4ae, 5-((1-phenylethyl)amino)pyrimido[4,5-c]quinoline-8-carboxylic acid] yielded an IC50 of 1.9 µM.
Work on O=C(O)c1ccc2c(c1)nc(N[C@H]1CCc3ccccc31)c1ncncc12 [Compound 4ag, (S)-5-((2,3-dihydro-1H-inden-1-yl)amino)pyrimido[4,5-c]quinoline-8-carboxylic acid] yielded an IC50 of 0.3 µM.
O=C(O)c1ccc2c(c1)nc(N[C@@H]1CCc3ccccc31)c1ncncc12 [Compound 4ah, (R)-5-((2,3-dihydro-1H-inden-1-yl)amino)pyrimido[4,5-c]quinoline-8-carboxylic acid] showed an IC50 of over 10 µM.
O=C(O)c1ccc2c(c1)nc(N1CCc3ccccc3C1)c1ncncc12 [Compound 4ai, 5-(3,4-dihydroisoquinolin-2(1H)-yl)pyrimido[4,5-c]quinoline-8-carboxylic acid] gave an IC50 of 1.2 µM.
In the case of O=C(O)c1ccc2c(c1)nc(NCc1cccc(Cl)c1)c1ncncc12 [Compound 4b, 5-((3-chlorobenzyl)amino)pyrimido[4,5-c]quinoline-8-carboxylic acid], the IC50 is reported as 0.37 µM.
Compound COc1ccccc1CNc1nc2cc(C(=O)O)ccc2c2cncnc12 [Compound 4d, 5-((2-methoxybenzyl)amino)pyrimido[4,5-c]quinoline-8-carboxylic acid] has an IC50 of 1 µM.
Compound COc1cccc(CNc2nc3cc(C(=O)O)ccc3c3cncnc23)c1 [Compound 4e, 5-((3-methoxybenzyl)amino)pyrimido[4,5-c]quinoline-8-carboxylic acid] has an IC50 of 0.6 µM.
COc1ccc(CNc2nc3cc(C(=O)O)ccc3c3cncnc23)cc1 [Compound 4f, 5-((4-methoxybenzyl)amino)pyrimido[4,5-c]quinoline-8-carboxylic acid] gave an IC50 of 0.28 µM.
Work on Cc1ccc(CNc2nc3cc(C(=O)O)ccc3c3cncnc23)cc1 [Compound 4h, 5-((4-methylbenzyl)amino)pyrimido[4,5-c]quinoline-8-carboxylic acid] yielded an IC50 of 0.34 µM.

Same assay, conditions: active / inactive analogs with 10-fold differences in IC50
For CN(Cc1ccccc1)c1nc2cc(C(=O)O)ccc2c2cncnc12 [Compound 4ac, 5-(benzyl(methyl)amino)pyrimido[4,5-c]quinoline-8-carboxylic acid], the Designation was “Active”.
With CN(CC1CCCCC1)c1nc2cc(C(=O)O)ccc2c2cncnc12 [Compound 4ad, 5-((cyclohexylmethyl)(methyl)amino)pyrimido[4,5-c]quinoline-8-carboxylic acid] the Designation was “Inactive”.
For CC(Nc1nc2cc(C(=O)O)ccc2c2cncnc12)c1ccccc1 (stereo not drawn) [Compound 4ae, 5-((1-phenylethyl)amino)pyrimido[4,5-c]quinoline-8-carboxylic acid], the Designation was “Inactive”.
With O=C(O)c1ccc2c(c1)nc(N1CCc3ccccc3C1)c1ncncc12 [Compound 4ai, 5-(3,4-dihydroisoquinolin-2(1H)-yl)pyrimido[4,5-c]quinoline-8-carboxylic acid] the Designation was “Inactive”.

Same assay, conditions: compared to unmethylated parent amine 4t
With CN(CC1CCCCC1)c1nc2cc(C(=O)O)ccc2c2cncnc12 [Compound 4ad, 5-((cyclohexylmethyl)(methyl)amino)pyrimido[4,5-c]quinoline-8-carboxylic acid] the “fold less active on CSNK2A” value was 17 fold.

Test system: not listed separately
Test: Kinetic solubility in PBS pH 7.4
Format: physicochemical
Conditions: phosphate-buffered saline, pH 7.4, aqueous buffer, kinetic from dmso stock, PBS pH 7.4, 24 h
Description: Kinetic solubility assay was conducted using 10 mM DMSO stocks of compounds in phosphate-buffered saline solution (PBS) at pH 7.4 by Analiza, Inc., Cleveland, OH, USA. […] The calculated values were corrected for the background nitrogen in the media and DMSO.
Compound O=C(O)c1ccc2c(c1)nc(NCc1ccccc1Cl)c1ncncc12 [Compound 4a, 5-((2-chlorobenzyl)amino)pyrimido[4,5-c]quinoline-8-carboxylic acid] has a solubility at 24 h of 140 µM (≈ 51.1 µg/mL).
In the case of CN1CCC(CNc2nc3cc(C(=O)O)ccc3c3cncnc23)CC1 [Compound 4ab, 5-(((1-methylpiperidin-4-yl)methyl)amino)pyrimido[4,5-c]quinoline-8-carboxylic acid], the solubility at 24 h is reported as 220 µM (≈ 77.3 µg/mL).
CN(Cc1ccccc1)c1nc2cc(C(=O)O)ccc2c2cncnc12 [Compound 4ac, 5-(benzyl(methyl)amino)pyrimido[4,5-c]quinoline-8-carboxylic acid] showed a solubility at 24 h of 180 µM (≈ 62 µg/mL).
For CN(CC1CCCCC1)c1nc2cc(C(=O)O)ccc2c2cncnc12 [Compound 4ad, 5-((cyclohexylmethyl)(methyl)amino)pyrimido[4,5-c]quinoline-8-carboxylic acid], the solubility at 24 h was 200 µM (≈ 70.1 µg/mL).
With CC(Nc1nc2cc(C(=O)O)ccc2c2cncnc12)c1ccccc1 (stereo not drawn) [Compound 4ae, 5-((1-phenylethyl)amino)pyrimido[4,5-c]quinoline-8-carboxylic acid] the solubility at 24 h was 180 µM (≈ 62 µg/mL).
With O=C(O)c1ccc2c(c1)nc(N1CCc3ccccc3C1)c1ncncc12 [Compound 4ai, 5-(3,4-dihydroisoquinolin-2(1H)-yl)pyrimido[4,5-c]quinoline-8-carboxylic acid] the solubility at 24 h was 160 µM (≈ 57 µg/mL).
O=C(O)c1ccc2c(c1)nc(NCc1cccc(Cl)c1)c1ncncc12 [Compound 4b, 5-((3-chlorobenzyl)amino)pyrimido[4,5-c]quinoline-8-carboxylic acid] gave a solubility at 24 h of 150 µM (≈ 54.7 µg/mL).
Compound COc1ccccc1CNc1nc2cc(C(=O)O)ccc2c2cncnc12 [Compound 4d, 5-((2-methoxybenzyl)amino)pyrimido[4,5-c]quinoline-8-carboxylic acid] has a solubility at 24 h of 140 µM (≈ 50.5 µg/mL).
For COc1cccc(CNc2nc3cc(C(=O)O)ccc3c3cncnc23)c1 [Compound 4e, 5-((3-methoxybenzyl)amino)pyrimido[4,5-c]quinoline-8-carboxylic acid], the solubility at 24 h was 170 µM (≈ 61.3 µg/mL).
For COc1ccc(CNc2nc3cc(C(=O)O)ccc3c3cncnc23)cc1 [Compound 4f, 5-((4-methoxybenzyl)amino)pyrimido[4,5-c]quinoline-8-carboxylic acid], the solubility at 24 h was 160 µM (≈ 57.7 µg/mL).
With Cc1ccc(CNc2nc3cc(C(=O)O)ccc3c3cncnc23)cc1 [Compound 4h, 5-((4-methylbenzyl)amino)pyrimido[4,5-c]quinoline-8-carboxylic acid] the solubility at 24 h was 170 µM (≈ 58.5 µg/mL).
